Consider one molecule from EPA's ToxValDB 9.5 (doi:10.2903/j.efsa.2013.2923).

Data set [1] concerns Scenedesmus quadricauda. To be noted: acute.
The test system of data set [2] is Pontoscolex corethrurus. Conditions: acute; mortality.
For data set [3], the system named is Rattus norvegicus. To be noted: reproduction developmental; mortality.
Data set [4] relates to Oncorhynchus mykiss. To be noted: acute; mortality.
Data set [5] relates to Oryctolagus sp. Conditions: reproduction developmental; mortality.
The test system of data set [6] is Apis mellifera. To be noted: acute, mortality.
Data set [7] concerns Bird.
Data set [8] has as its system Mus musculus. To be noted: acute; oral; mortality.
Data set [9] concerns Daphnia magna. To be noted: chronic/long-term.
In data set [10] the test system is Neovison vison. Conditions: reproduction developmental; reproduction.

Regarding `[I-].[K+]` [Potassium iodide], the NOEC in data set [1] came out at 1310 mg/L; in data set [7] (reproductive, reproduction) it was 0.69 mg/kg-day; in [9] it was 0.25 mg/L. Also, the LC50 is over 12.5 mg/kg in data set [2]; 2190 µg/mL in data set [4]; over 258 mg/kg-day in [7] (short-term, oral, feed, mortality). The NOAEL in data set [3], in [5] and in data set [10] was 0.5 mg/kg-day each time. Moreover, the LD50 in [6] (dermal) was over 0.78 µg/piece; in data set [6] (oral, unspecified), over 2.4 µg/piece; in data set [7] (acute, oral, unspecified, mortality) it was over 1180 mg/kg-day; in [8] it was 1860 mg/kg.
